Results: the CheMixHub viscosity set

Experiment: xn = mol fraction of the nth substance listed

CO + O
Settings | viscosity [mPa·s]
303.15 K, 101.3 kPa, x2 = 0.5 | 1.177
303.15 K, 101.3 kPa, x2 = 0.5599 | 1.263
303.15 K, 101.3 kPa, x2 = 0.6148 | 1.306
303.15 K, 101.3 kPa, x2 = 0.7 | 1.39
303.15 K, 101.3 kPa, x2 = 0.7982 | 1.308
303.15 K, 101.3 kPa, x2 = 0.8 | 1.361
303.15 K, 101.3 kPa, x2 = 0.85 | 1.284
303.15 K, 101.3 kPa, x2 = 0.9043 | 1.108
303.15 K, 101.3 kPa, x2 = 0.95 | 0.999
303.15 K, 101.33 kPa, x2 = 0.1232 | 0.625
303.15 K, 101.33 kPa, x2 = 0.1599 | 0.679
303.15 K, 101.33 kPa, x2 = 0.2168 | 0.765
303.15 K, 101.33 kPa, x2 = 0.2992 | 0.874
303.15 K, 101.33 kPa, x2 = 0.3639 | 0.972
303.15 K, 101.33 kPa, x2 = 0.3948 | 1.021
303.15 K, 101.33 kPa, x2 = 0.4567 | 1.129
303.15 K, 101.33 kPa, x2 = 0.5837 | 1.31
303.15 K, 101.33 kPa, x2 = 0.8272 | 1.319
303.15 K, 101.33 kPa, x2 = 0.8782 | 1.213
303.15 K, 101.33 kPa, x2 = 0.886 | 1.185
303.15 K, 101.33 kPa, x2 = 0.9125 | 1.11
308.15 K, 101 kPa, x1 = 0.125 | 1.07
308.15 K, 101 kPa, x1 = 0.274 | 1.22
308.15 K, 101 kPa, x1 = 0.465 | 1.08
308.15 K, 101 kPa, x1 = 0.702 | 0.834
308.15 K, 101 kPa, x2 = 0.9413 | 0.9361
308.15 K, 101.3 kPa, x1 = 0.0588 | 0.894
308.15 K, 101.3 kPa, x1 = 0.1233 | 1.062
308.15 K, 101.3 kPa, x1 = 0.1943 | 1.172
308.15 K, 101.3 kPa, x1 = 0.2727 | 1.213
308.15 K, 101.3 kPa, x1 = 0.3599 | 1.18
313.15 K, 101 kPa, x1 = 0.055 | 0.78
313.15 K, 101 kPa, x1 = 0.129 | 0.974
313.15 K, 101 kPa, x1 = 0.176 | 1.021
313.15 K, 101 kPa, x1 = 0.232 | 1.078
313.15 K, 101 kPa, x1 = 0.256 | 1.067
313.15 K, 101 kPa, x1 = 0.487 | 0.973
313.15 K, 101 kPa, x1 = 0.541 | 0.911
313.15 K, 101 kPa, x1 = 0.625 | 0.815
313.15 K, 101 kPa, x1 = 0.642 | 0.807
313.15 K, 101 kPa, x1 = 0.903 | 0.545
313.15 K, 101.3 kPa, x2 = 0.0969 | 0.544
313.15 K, 101.3 kPa, x2 = 0.2006 | 0.643
313.15 K, 101.3 kPa, x2 = 0.3002 | 0.749
313.15 K, 101.3 kPa, x2 = 0.4001 | 0.861
313.15 K, 101.3 kPa, x2 = 0.5 | 0.945
313.15 K, 101.3 kPa, x2 = 0.6 | 1.022
313.15 K, 101.3 kPa, x2 = 0.7 | 1.091
313.15 K, 101.3 kPa, x2 = 0.8 | 1.054
313.15 K, 101.3 kPa, x2 = 0.85 | 0.995
313.15 K, 101.3 kPa, x2 = 0.9 | 0.907
313.15 K, 101.3 kPa, x2 = 0.95 | 0.788
318.15 K, 101 kPa, x1 = 0.125 | 0.832
318.15 K, 101 kPa, x1 = 0.274 | 0.952
318.15 K, 101 kPa, x1 = 0.465 | 0.868
318.15 K, 101 kPa, x1 = 0.702 | 0.69
318.15 K, 101 kPa, x2 = 0.9413 | 0.8181
323.15 K, 100 kPa, x1 = 0.2 | 0.832
323.15 K, 100 kPa, x1 = 0.3 | 0.86
323.15 K, 100 kPa, x1 = 0.4 | 0.848
323.15 K, 101 kPa, x1 = 0.055 | 0.64
323.15 K, 101 kPa, x1 = 0.129 | 0.785
323.15 K, 101 kPa, x1 = 0.176 | 0.818
323.15 K, 101 kPa, x1 = 0.232 | 0.857
323.15 K, 101 kPa, x1 = 0.256 | 0.849
323.15 K, 101 kPa, x1 = 0.487 | 0.796
323.15 K, 101 kPa, x1 = 0.541 | 0.746
323.15 K, 101 kPa, x1 = 0.625 | 0.678
323.15 K, 101 kPa, x1 = 0.642 | 0.673
323.15 K, 101 kPa, x1 = 0.903 | 0.475
323.15 K, 101.3 kPa, x1 = 0.9144 | 0.458
323.15 K, 101.3 kPa, x2 = 0.0969 | 0.47
323.15 K, 101.3 kPa, x2 = 0.2006 | 0.547
323.15 K, 101.3 kPa, x2 = 0.3002 | 0.628
323.15 K, 101.3 kPa, x2 = 0.4001 | 0.71
323.15 K, 101.3 kPa, x2 = 0.5 | 0.774
323.15 K, 101.3 kPa, x2 = 0.6 | 0.826
323.15 K, 101.3 kPa, x2 = 0.7 | 0.86
323.15 K, 101.3 kPa, x2 = 0.8 | 0.84
323.15 K, 101.3 kPa, x2 = 0.85 | 0.796
323.15 K, 101.3 kPa, x2 = 0.95 | 0.647
